# According to ChEMBL document CHEMBL1201862, “PubChem BioAssay data set” (2004):
# Calls of active or inactive are those of the source.
# Tests used:
# Cytochrome P450 2D6 [1] = biological target: T1, Cytochrome P450 2D6 (Homo sapiens, UniProt P10635); test: qHTS Assay for Inhibitors and Substrates of Cytochrome P450 2D6. [Related pubchem assays: 410 ]; type: ADME; conditions: read-out: Potency
# Mucolipin-3 = biological target: T2, Mucolipin-3 (Homo sapiens, UniProt Q8TDD5); test: Dose response cell-based high-throughput screening assay for agonists of the transient receptor potential channel ML3 (TRPML3). [Related pubchem assays: 1526, 1424, 1448 ]; type: functional
# T2 sequence (Q8TDD5 whole entry): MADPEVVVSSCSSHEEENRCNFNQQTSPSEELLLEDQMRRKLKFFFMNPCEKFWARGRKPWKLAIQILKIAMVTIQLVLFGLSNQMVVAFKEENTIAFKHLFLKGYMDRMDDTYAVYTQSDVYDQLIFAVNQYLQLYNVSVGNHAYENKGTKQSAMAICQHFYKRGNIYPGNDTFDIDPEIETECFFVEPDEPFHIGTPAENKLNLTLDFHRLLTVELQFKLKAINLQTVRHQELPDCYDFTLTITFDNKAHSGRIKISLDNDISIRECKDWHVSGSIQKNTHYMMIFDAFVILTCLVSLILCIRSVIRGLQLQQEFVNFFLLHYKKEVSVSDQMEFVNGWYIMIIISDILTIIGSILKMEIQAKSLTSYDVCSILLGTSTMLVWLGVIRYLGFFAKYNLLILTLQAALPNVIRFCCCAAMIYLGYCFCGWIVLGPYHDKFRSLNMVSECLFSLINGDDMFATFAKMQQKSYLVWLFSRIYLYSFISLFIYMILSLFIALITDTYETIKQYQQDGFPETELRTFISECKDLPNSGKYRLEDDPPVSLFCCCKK
# Ion channel NompC = Ion channel NompC (Danio rerio, UniProt Q7T1G6); test: Fluorescence counterscreen assay for TRPML3 agonists: dose response cell-based high-throughput screening assay to identify agonists of the transient receptor potential channel N1 (TRPN1). [Related pubchem assays: 1526, 1424, 1448 ]; type: functional
# Estrogen receptor beta [2] = biological target: T3, Estrogen receptor beta (Homo sapiens, UniProt Q92731);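 further: recombinant ER-beta bound to coactivator SRC1 peptide in presence of estradiol agonist; inhibitors block coactivator peptide binding and lower the FRET signal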
# Estrogen receptor beta [3] = biological target: T3, Estrogen receptor beta; test: blockers of SRC-3 recruitment to ERβ – biochemical, ELISA, streptavidin-HRP readout, orthogonal assay, confirmation (AID 1060)
# Aminopeptidase N = biological target: T4, Aminopeptidase N (Plasmodium falciparum FcB1/Columbia, UniProt O96935); test: malaria alanyl aminopeptidase activity blockers – biochemical, fluorogenic H-Leu-NHMec substrate, 1536-well (AID 1445); design: species or system Plasmodium falciparum 3D7, 3D7
# T4 sequence (O96935 whole entry): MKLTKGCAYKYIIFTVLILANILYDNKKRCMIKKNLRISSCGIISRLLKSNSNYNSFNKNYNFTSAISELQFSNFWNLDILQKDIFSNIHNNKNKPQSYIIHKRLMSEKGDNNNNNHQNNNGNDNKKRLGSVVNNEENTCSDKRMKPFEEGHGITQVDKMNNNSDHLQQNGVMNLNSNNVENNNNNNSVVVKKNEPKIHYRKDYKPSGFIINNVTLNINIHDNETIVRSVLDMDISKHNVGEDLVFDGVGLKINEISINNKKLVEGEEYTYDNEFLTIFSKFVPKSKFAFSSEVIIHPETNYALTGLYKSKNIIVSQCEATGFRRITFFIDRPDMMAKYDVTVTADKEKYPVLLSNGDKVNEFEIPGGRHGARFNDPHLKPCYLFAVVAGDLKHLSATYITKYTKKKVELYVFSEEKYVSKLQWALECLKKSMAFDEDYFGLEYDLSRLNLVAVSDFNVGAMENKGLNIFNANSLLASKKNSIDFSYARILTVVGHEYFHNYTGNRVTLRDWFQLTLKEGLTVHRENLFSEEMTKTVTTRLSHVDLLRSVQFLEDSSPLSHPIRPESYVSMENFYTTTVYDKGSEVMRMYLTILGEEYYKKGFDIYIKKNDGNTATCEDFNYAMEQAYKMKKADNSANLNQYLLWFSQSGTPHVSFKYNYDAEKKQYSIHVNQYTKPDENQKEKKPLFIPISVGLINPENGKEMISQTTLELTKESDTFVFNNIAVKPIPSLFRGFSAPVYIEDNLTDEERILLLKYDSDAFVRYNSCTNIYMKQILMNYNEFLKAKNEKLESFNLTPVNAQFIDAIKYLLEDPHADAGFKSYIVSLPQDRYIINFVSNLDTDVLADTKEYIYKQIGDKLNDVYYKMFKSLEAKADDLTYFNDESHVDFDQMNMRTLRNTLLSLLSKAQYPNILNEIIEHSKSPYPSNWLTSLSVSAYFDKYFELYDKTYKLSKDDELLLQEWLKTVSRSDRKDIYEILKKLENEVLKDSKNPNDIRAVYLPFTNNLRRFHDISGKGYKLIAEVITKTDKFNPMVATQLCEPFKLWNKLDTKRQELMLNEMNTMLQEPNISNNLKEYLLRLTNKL
# [4] = biological target: Eukaryotic translation initiation factor 4H (Homo sapiens, UniProt Q15056); test: eIF4H binding inhibition – biochemical, uHTS, fluorescence polarization, translation initiation inhibitor project, primary screen (AID 2012)
# [5] = biological target: Polyadenylate-binding protein 1 (Homo sapiens, UniProt P11940); test: blockers of PABP interaction with poly(A) – biochemical, fluorescence polarization, […] (AID 2014)
# [6] = biological target: FAD-linked sulfhydryl oxidase ALR (Homo sapiens, UniProt P55789); test: ALR-catalysed DTT oxidation blockers – biochemical, H2O2 detection, luminescence, cherry-pick, dose response (AID 493248)
# Cytochrome P450 3A4 = Cytochrome P450 3A4 (Homo sapiens, UniProt P08684); conditions: Potency;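 further: confirmatory qHTS run detecting inhibitors and substrates of CYP3A4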
# Large T antigen = Large T antigen (Simian virus 40, UniProt P03070); type: functional, Betapolyomavirus macacae;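 further: Confirmatory-stage PubChem screen for compounds that inhibit SV40 T antigen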
# [7] = biological target: Glucose-6-phosphate 1-dehydrogenase (Homo sapiens, UniProt P11413); test: inhibition of Homo sapiens G6PD, dose series – biochemical, fluorescence, selectivity assay for P. falciparum G6PD inhibitor project, dose response (AID 504792); type: functional
# [8] = biological target: Peroxisome proliferator-activated receptor gamma/Nuclear receptor coactivator 2 (Homo sapiens, UniProt P37231); type: functional;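 further: agonist potency for raising coactivator recruitment to the receptor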
# [9] = biological target: Peroxisome proliferator-activated receptor gamma/Nuclear receptor coactivator 1 (Homo sapiens, UniProt P37231); type: functional;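 further: agonist potency as compounds enhance coactivator SRC-1 recruitment to PPARgamma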
# [10] = biological target: Peroxisome proliferator-activated receptor gamma/Nuclear receptor coactivator 3 (Homo sapiens, UniProt P37231); type: functional;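 further: agonist potency for raising coactivator recruitment to the receptor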
# [11] = biological target: Protein-tyrosine kinase 2-beta (Homo sapiens, UniProt Q14289);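 further: potency of inhibitors of PYK2 kinase phosphorylation of poly-GT substrate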
# [12] = biological target: T5, Heat shock factor protein 1 (Mus musculus, UniProt P38532); test: enhancement of HSF1-driven luciferase signal – cell-based, NIH3T3, luminescence, dose retest, confirmation (AID 435004); type: functional;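 further: stress induced by proteasome inhibitor MG132 added 30 min after compound; luciferase reporter driven by HSF1 response element in NIH3T3 cells; actives raise luminescence as potentiators of the MG132 stress response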
# T5 sequence (P38532 whole entry): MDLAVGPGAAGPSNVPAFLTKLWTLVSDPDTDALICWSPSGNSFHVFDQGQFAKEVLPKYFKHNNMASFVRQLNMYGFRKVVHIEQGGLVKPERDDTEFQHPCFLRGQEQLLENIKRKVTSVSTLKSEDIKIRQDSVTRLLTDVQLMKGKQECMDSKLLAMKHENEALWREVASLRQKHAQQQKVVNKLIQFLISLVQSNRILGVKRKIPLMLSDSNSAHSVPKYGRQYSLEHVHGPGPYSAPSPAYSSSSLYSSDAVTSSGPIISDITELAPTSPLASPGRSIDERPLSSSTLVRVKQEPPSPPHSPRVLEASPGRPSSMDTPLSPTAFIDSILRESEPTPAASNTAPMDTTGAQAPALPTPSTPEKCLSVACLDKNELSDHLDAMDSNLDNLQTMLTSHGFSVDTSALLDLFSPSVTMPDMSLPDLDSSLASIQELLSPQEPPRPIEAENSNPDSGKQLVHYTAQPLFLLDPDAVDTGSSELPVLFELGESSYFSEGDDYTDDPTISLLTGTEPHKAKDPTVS
# [13] = system: Streptococcus sp. 'group A'; test: Streptococcus pyogenes SK(-)GAS viability under kanamycin – luminescence, BacTiterGlo, confirmation, counter-screen for streptokinase expression inhibitor project, dose response (AID 1900); type: functional, organism-based
# Streptokinase A = biological target: T6, Streptokinase A (Streptococcus pyogenes serotype M1, UniProt P10520); test: viability-normalized secreted streptokinase activity reduction – plasminogen activation absorbance, OD405, dose response (AID 1914); type: functional, Streptococcus pyogenes M1 GAS;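 further: secreted streptokinase activity via plasminogen activation per viability signal from cell pellet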
# T6 sequence (P10520 whole entry): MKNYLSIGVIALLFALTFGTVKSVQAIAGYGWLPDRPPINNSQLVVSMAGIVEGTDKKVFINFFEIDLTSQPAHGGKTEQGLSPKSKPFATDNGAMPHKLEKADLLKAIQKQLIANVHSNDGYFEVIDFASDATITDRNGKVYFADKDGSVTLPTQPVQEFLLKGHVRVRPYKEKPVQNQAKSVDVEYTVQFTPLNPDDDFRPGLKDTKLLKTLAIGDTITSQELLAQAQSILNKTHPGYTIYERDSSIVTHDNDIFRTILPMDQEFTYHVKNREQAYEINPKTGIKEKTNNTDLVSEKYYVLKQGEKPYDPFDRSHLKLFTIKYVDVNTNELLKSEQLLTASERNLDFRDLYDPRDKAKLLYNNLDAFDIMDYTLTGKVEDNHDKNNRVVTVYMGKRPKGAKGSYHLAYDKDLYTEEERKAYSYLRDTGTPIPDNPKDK
# [14] = Trypanosoma cruzi growth suppression in host cells – NIH3T3 host cells, beta-gal luminescence, confirmation (AID 2044); type: functional, cell-based;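 further: intracellular parasites grown in NIH/3T3 mouse fibroblasts as host cells; luminescent beta-galactosidase reporter signal from transgenic T. cruzi replicating inside host cells; inhibitors lower the luminescence signal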
# [15] = NIH3T3 cell viability loss – ATP luminescence, mouse fibroblasts, counter-screen, dose response (AID 2010); type: functional, cell-based;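 further: cells exposed to compound for about 90 hours before reading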
# Streptococcus = test: GAS UMAA2166 growth inhibition – luminescence, BacTiterGlo, counter-screen for streptokinase expression inhibitor project, dose response (AID 1915); type: functional, organism-based;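 further: potency for reduction of bacterial viability or growth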
# Cytochrome P450 2C19 = Cytochrome P450 2C19 (Homo sapiens, UniProt P33261); test: Cytochrome panel assay with activity outcomes. Panel member name: p450-cyp2c19 Compounds with AC50 equal or less than 10 uM are considered active; type: functional; conditions: read-out: AC50
# Cytochrome P450 2D6 [16] = biological target: T1, Cytochrome P450 2D6
# Sequence of Peroxisome proliferator-activated receptor gamma/Nuclear receptor coactivator 3 (P37231 whole entry): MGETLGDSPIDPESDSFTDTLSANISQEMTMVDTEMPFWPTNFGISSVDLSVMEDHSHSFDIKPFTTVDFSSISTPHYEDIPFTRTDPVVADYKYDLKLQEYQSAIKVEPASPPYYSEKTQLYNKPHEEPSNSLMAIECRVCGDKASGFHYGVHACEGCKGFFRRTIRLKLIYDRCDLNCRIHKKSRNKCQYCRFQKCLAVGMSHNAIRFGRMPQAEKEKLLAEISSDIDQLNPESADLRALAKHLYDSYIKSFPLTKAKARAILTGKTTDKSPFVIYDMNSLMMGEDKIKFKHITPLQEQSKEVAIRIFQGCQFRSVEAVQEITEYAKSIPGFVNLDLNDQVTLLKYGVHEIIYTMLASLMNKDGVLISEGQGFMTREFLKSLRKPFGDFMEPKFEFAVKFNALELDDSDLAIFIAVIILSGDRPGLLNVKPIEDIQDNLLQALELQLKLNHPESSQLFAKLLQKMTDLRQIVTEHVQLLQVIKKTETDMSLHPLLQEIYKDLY
# Sequence of Peroxisome proliferator-activated receptor gamma/Nuclear receptor coactivator 3 (Q9Y6Q9 whole entry, further chain): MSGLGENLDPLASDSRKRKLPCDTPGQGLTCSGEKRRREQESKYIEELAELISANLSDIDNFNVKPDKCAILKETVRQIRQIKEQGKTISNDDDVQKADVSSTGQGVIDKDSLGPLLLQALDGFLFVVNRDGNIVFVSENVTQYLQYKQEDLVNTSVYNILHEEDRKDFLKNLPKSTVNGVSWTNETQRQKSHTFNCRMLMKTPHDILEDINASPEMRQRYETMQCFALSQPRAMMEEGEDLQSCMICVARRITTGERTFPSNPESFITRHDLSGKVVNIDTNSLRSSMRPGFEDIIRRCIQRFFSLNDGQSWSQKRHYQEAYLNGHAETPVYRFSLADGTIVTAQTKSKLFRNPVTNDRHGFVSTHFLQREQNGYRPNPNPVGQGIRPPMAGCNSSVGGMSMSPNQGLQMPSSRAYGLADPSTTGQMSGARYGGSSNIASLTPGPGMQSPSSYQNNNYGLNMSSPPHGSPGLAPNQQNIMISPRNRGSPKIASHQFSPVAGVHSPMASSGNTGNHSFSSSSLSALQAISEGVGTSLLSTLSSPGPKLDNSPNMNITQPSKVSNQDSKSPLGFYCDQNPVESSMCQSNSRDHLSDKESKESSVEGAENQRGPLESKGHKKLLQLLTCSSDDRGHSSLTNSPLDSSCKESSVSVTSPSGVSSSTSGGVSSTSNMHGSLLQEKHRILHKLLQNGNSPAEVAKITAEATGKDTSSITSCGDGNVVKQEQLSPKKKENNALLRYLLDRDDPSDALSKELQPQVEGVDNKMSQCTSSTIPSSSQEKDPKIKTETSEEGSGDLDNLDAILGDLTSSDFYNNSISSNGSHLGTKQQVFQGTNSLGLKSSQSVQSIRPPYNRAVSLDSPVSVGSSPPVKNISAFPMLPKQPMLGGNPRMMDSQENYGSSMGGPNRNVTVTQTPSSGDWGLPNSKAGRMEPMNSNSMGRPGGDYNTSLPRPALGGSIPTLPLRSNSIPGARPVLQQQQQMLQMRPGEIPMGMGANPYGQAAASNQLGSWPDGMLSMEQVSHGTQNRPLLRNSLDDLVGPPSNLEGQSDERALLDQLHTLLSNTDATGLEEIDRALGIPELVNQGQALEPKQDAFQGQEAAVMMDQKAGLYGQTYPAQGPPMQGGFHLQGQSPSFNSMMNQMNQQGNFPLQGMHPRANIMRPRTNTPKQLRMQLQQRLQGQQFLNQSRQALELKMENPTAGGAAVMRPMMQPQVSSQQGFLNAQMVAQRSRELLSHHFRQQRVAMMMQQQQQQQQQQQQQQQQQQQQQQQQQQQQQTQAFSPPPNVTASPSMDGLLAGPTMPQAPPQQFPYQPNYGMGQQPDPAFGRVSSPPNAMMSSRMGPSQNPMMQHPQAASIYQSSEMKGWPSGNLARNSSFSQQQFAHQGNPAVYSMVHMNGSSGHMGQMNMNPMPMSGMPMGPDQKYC
# Sequence of Peroxisome proliferator-activated receptor gamma/Nuclear receptor coactivator 1 (P37231 whole entry): as the sequence (P37231 whole entry) above
# Sequence of Peroxisome proliferator-activated receptor gamma/Nuclear receptor coactivator 1 (Q15788 whole entry, further chain): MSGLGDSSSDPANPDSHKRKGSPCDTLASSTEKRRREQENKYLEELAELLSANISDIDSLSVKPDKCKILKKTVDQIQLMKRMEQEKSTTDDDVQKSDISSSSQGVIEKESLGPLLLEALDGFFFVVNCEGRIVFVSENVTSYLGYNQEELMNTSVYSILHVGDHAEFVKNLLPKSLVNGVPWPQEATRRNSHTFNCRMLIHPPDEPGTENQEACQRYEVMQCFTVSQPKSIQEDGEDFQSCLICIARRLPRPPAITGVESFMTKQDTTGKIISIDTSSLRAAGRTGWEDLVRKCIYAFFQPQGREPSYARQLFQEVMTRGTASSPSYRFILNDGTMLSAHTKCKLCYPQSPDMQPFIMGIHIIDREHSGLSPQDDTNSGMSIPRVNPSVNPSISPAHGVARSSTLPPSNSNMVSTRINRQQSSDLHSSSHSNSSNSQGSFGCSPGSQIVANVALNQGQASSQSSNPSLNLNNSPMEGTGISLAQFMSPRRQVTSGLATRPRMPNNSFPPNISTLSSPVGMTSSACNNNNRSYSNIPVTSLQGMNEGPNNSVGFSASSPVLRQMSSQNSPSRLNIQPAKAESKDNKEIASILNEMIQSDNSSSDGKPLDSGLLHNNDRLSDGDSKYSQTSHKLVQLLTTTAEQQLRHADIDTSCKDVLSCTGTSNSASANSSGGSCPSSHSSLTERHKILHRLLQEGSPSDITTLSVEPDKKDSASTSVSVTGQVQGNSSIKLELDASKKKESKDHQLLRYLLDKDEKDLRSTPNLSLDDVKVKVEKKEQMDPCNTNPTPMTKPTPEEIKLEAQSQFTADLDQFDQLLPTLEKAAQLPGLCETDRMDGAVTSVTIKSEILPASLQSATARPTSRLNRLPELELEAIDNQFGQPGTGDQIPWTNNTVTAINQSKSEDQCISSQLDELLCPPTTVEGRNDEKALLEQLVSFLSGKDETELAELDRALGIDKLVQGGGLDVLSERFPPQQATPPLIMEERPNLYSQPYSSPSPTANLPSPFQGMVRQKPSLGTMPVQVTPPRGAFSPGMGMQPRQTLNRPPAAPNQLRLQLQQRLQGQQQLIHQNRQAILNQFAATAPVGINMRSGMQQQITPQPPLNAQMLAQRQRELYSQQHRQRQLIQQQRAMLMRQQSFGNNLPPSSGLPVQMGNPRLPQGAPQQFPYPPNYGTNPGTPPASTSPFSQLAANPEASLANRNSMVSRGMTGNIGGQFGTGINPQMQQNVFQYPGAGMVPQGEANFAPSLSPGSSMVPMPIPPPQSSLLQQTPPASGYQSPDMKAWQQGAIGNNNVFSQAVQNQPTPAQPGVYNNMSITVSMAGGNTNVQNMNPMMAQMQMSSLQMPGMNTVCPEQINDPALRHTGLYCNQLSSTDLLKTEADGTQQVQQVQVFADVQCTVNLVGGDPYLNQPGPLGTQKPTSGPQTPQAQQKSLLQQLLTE
# T3 sequence (Q92731 whole entry): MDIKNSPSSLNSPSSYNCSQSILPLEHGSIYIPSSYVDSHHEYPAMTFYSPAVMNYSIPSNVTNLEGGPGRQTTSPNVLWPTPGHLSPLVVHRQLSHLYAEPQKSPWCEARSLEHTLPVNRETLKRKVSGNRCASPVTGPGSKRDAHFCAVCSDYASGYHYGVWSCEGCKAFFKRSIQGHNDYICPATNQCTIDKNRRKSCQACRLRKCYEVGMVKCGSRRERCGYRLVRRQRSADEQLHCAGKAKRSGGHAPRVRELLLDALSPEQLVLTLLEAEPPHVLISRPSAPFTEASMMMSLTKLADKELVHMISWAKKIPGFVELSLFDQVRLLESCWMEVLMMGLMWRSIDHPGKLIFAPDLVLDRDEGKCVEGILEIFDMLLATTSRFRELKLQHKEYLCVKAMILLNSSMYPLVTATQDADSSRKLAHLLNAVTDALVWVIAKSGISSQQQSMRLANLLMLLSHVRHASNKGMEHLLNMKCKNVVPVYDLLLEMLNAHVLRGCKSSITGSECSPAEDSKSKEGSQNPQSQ
# T1 sequence (P10635 whole entry): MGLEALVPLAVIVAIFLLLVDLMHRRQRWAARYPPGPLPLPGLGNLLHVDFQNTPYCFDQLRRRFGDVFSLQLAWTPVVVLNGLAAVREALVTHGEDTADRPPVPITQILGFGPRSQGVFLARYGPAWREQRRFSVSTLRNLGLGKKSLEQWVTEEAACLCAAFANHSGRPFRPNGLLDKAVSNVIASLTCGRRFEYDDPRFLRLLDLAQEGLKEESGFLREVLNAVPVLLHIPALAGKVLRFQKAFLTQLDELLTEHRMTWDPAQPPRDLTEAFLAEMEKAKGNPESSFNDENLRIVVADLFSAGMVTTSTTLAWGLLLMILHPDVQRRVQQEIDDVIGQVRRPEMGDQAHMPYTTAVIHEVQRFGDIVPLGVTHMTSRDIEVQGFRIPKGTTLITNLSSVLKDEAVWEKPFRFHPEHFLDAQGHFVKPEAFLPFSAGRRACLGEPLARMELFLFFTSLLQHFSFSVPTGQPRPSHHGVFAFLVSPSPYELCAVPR
structure (smiles),measurement,setting,value
O=C(CCCN1CCC2(CC1)C(=O)N(CCc1ccc(N=C=S)cc1)CN2c1ccccc1)c1ccc(F)cc1,AC50,Cytochrome P450 2D6 [1],15.8 µM (inconclusive)
Cc1onc(-c2ccccc2)c1C(=O)N(Cc1ccco1)Cc1cccs1,EC50,Mucolipin-3,12.4 µM (not active)
same,EC50,Ion channel NompC,> 29.9 µM (not active)
CC(=O)NC12CC3CC(C1)CC(C(=O)OCC(=O)Nc1ncc(Cl)c(C)c1Cl)(C3)C2,IC50,Estrogen receptor beta [2],9.36 µM (active)
same,IC50,Estrogen receptor beta [3],< 0.023 µM (not active)
O=C1NC(=S)NC(=O)C1=NNc1cc2c(cc1[N+](=O)[O-])OCO2,IC50,Aminopeptidase N,26.9 µM (active)
C[N+]1(C)C2CCC1CC(OC(=O)c1ccco1)C2 (configuration not stated),IC50,[4],> 100 µM (inactive)
same,IC50,[5],7.77 µM (active)
O=C(c1ccco1)N1CCN=C1SCc1cccnc1,AC50,[6],1.19 µM (active)
CCN(CCNS(=O)(=O)c1ccc2nc(O)sc2c1)c1ccccc1,AC50,[6],1.17 µM (active)
COc1ccc(S(=O)(=O)NC2CCCCC2)c(C)c1C,EC50,Mucolipin-3,> 3.32 µM (not active)
same,EC50,Ion channel NompC,> 29.9 µM (not active)
CC12C=C(/C=C/c3ccccc3)C(C)(C1)C(c1ccccc1)CC2=O (configuration not stated),AC50,Cytochrome P450 2D6 [1],3.16 µM (inconclusive)
same,AC50,Cytochrome P450 3A4,3.16 µM (inconclusive)
O=C(CN1CCN(c2ccc(O)cc2)CC1)Nc1cc(S(=O)(=O)N2CCOCC2)ccc1Cl,IC50,[4],72.2 µM (active)
same,IC50,Large T antigen,17 µM (active)
same,IC50,[5],> 100 µM (inactive)
same,IC50,[7],> 80 µM (inactive)
O=C(Nc1ccc2oc(-c3ccncc3)nc2c1)c1c(F)c(F)c(F)c(F)c1F,EC50,[8],25.6 µM (not active)
same,EC50,[9],25.8 µM (not active)
same,EC50,[10],28.9 µM (not active)
CC1(c2ccc(OC(F)F)cc2)NC(=O)N(CC(=O)Nc2ccc(S(N)(=O)=O)cc2)C1=O (configuration not stated),IC50,Aminopeptidase N,28.3 µM (active)
Cc1csc(C(C#N)C(=O)c2ccncc2)n1 (configuration not stated),EC50,[8],> 79.4 µM (not active)
same,EC50,[9],> 79.4 µM (not active)
same,EC50,[10],> 79.4 µM (not active)
same,IC50,Estrogen receptor beta [2],13.9 µM (active)
same,IC50,Estrogen receptor beta [3],> 109 µM (not active)
CCOC(=O)c1sc2c(c1C)C(c1cccs1)C1=C(O)CCCC1=N2 (configuration not stated),IC50,[11],> 69.5 µM (not active)
same,EC50,[12],80.5 µM (active)
CCC(=O)NC(=S)Nc1ccc(NC(=S)NC(=O)c2ccccc2)cc1,EC50,[8],> 79.4 µM (not active)
same,EC50,[9],> 79.4 µM (not active)
same,EC50,[13],1.23 µM (active)
same,EC50,[10],> 79.4 µM (not active)
same,EC50,Streptokinase A,> 150 µM (not active)
same,EC50,[14],0.553 µM (active)
same,EC50,[15],> 60 µM (not active)
same,EC50,Streptococcus,38 µM (active)
CC1(C)Cc2cccc(Oc3ccc(S(=O)(=O)N4CCCCC4)cn3)c2O1,EC50,Mucolipin-3,9.27 µM (active)
same,EC50,Ion channel NompC,> 29.9 µM (not active)
Cc1cc2nc3c(=O)[nH]c(=O)nc-3n(CC(O)C(O)C(O)CO)c2cc1C (configuration not stated) [RIBOFLAVIN],AC50,Cytochrome P450 2D6 [1],31.6 µM (inconclusive)
same,AC50,Cytochrome P450 2C19,6.31 µM (inconclusive)
same,AC50,Cytochrome P450 2D6 [16],12.6 µM (inconclusive)
